According to patent publication US12303509B2, “Compounds for the treatment of BRAF-associated diseases and disorders” (Pfizer Inc., priority 2020, dated 2025):
pIC50: −log10 of the molar value. Counter-ions that a name gives are not always drawn. Like-named read-outs stand apart in the source and are kept apart here.

How the values were obtained:
[1] = target: P-gp (MDR1) (Homo sapiens (Human), UniProt P08183); assay: MDR1 LLC-PK1 permeability assay: efflux ratio; type: in vitro ADME; details: pig
Sequence of P-gp (MDR1) (P08183 whole entry, species assumed): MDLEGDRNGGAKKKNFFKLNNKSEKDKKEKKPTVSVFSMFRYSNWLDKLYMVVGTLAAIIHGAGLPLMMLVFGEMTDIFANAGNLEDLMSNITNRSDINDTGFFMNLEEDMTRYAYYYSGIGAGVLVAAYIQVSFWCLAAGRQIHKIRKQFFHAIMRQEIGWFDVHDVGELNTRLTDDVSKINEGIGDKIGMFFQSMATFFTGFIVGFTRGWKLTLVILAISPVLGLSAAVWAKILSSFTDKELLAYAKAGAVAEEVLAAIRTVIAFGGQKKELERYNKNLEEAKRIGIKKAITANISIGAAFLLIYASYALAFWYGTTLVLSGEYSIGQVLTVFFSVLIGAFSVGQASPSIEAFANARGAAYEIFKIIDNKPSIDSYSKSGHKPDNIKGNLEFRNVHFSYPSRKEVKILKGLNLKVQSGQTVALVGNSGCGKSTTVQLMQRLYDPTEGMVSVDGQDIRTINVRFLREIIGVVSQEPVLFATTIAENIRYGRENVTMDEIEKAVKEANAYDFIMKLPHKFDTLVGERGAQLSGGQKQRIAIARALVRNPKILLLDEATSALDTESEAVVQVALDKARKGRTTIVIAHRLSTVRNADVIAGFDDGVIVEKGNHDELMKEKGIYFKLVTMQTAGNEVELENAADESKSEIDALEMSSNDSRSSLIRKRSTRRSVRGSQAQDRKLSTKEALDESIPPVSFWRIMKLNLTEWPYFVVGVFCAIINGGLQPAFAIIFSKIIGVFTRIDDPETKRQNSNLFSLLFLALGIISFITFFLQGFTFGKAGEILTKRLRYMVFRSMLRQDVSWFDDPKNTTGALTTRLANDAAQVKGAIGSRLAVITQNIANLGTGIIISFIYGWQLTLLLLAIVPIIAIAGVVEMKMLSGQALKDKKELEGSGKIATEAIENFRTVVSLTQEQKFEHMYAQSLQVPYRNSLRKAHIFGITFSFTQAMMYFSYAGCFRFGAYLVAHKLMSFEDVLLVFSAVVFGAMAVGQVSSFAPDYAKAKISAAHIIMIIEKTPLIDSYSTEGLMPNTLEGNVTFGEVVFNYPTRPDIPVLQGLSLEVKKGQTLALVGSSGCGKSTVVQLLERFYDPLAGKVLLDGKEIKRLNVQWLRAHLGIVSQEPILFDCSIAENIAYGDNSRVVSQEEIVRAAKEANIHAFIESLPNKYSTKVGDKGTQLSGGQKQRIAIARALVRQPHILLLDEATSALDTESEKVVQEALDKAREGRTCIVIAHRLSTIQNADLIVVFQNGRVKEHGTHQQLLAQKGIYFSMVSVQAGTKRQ
Text: (§1) Final organic concentration in the assay was 1%.

[2] = target: full-length FLAG-tagged B-Raf(V600E) (Homo sapiens (Human), UniProt P15056, V600E); assay: BRAF V600E enzyme assay (TR-FRET competitive displacement); type: binding
Sequence of full-length FLAG-tagged B-Raf(V600E) (P15056 whole entry V600E): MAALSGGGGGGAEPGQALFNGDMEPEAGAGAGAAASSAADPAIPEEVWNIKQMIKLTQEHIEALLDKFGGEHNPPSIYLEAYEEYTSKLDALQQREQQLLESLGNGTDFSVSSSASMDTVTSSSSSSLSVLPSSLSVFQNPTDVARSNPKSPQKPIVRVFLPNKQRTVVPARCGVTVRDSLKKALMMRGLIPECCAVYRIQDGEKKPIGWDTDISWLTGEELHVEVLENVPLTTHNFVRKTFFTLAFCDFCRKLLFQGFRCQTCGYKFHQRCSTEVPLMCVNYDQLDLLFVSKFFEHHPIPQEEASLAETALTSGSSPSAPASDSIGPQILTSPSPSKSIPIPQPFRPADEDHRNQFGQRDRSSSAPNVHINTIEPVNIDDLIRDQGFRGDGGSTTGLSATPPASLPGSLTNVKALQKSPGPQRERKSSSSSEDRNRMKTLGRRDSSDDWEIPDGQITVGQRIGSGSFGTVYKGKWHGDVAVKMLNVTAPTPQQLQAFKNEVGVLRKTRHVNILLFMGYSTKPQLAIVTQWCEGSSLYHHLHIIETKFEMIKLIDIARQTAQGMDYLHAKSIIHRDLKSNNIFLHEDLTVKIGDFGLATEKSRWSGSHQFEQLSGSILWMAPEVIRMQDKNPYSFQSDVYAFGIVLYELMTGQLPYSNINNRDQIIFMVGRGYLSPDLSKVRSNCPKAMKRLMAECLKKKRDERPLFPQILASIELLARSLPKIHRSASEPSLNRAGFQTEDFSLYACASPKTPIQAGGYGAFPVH
Outline: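 Displacement of 50 nM Tracer 1710 from 5 nM full-length N-terminally FLAG-tagged B-Raf(V600E), detected by TR-FRET with 0.5 nM Eu anti-FLAG antibody, in 25 mM HEPES pH 7.4, 10 mM MgCl2, 2% DMSO; 60 min at ~22 °C. Compounds 11-point, 3-fold from 10 μM; IC50 from 4-parameter fit at 50 POC.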

[3] = MDR1 LLC-PK1 and BCRP MDCKII permeability assay: permeability coefficient (Papp); type: in vitro ADME
Text: as §1

[4] = target: BCRP (Homo sapiens (Human), UniProt Q9UNQ0); assay: BCRP MDCKII permeability assay: efflux ratio; type: in vitro ADME; details: dog
Sequence of BCRP (Q9UNQ0 whole entry): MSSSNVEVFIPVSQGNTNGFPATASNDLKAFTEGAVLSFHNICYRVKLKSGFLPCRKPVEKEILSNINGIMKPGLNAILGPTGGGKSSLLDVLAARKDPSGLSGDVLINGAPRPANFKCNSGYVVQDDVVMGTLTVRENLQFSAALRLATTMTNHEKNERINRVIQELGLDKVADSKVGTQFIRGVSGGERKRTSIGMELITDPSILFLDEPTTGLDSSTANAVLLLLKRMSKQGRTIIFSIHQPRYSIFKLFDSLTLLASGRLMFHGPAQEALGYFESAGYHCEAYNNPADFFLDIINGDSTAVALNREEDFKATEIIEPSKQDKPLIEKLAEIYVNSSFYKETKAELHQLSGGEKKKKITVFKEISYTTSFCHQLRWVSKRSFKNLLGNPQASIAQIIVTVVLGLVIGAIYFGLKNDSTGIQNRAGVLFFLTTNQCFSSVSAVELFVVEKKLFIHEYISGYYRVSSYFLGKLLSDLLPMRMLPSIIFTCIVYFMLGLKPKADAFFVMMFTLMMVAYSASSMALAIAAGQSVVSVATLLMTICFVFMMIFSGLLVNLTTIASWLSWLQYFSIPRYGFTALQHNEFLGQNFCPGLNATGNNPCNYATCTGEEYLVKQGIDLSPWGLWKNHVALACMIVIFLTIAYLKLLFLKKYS

[5] = system: H1755 cells; assay: Cellular phospho-ERK inhibition assay in H1755 cells; type: cell-based; details: Homo sapiens, NCI-H1755, 2 hours treatment, read-out: H1755 Cell IC50
Method: A375 and H1755 cells were obtained from the American Type Culture Collection (ATCC, Rockville, MD). A375 cells were maintained in DMEM growth medium containing 10% FBS. H1755 cells were maintained in RPMI growth medium containing 10% FBS.
Cells were harvested according to standard protocols, counted and plated onto flat-bottom, 96-well tissue culture plates (Costar #3599) at 2.5×10^4 cells/well for A375 cells and 1.5×10^4 cells/well for H1755 cells in 100 μL/well of growth medium containing 10% FBS. After an overnight incubation at 37° C. with 5% CO2 cells were treated for 2 hours at 37° C., 5% CO2 with compounds prepared as a 9-point, 1:3.33 fold dilution series with final compound concentrations ranging from 66 pM-10 μM and a constant DMSO concentration of 0.25%. Control wells contained either 0.25% DMSO alone (uninhibited control) or 10 μM binimetinib (complete inhibition control). The levels of phosphorylated ERK are determined using an In Cell Western protocol: following compound incubation, growth medium was discarded, and cells were fixed with 0.4% formaldehyde in PBS for 20 minutes at room temperature. Cells were permeabilized with 100% methanol for 10 minutes at room temperature. Plates were washed with PBS containing 0.05% Tween-20 and blocked for 1 hour at room temperature with LI-COR Blocking Buffer (LI-COR Biosciences; Cat #927-40000). Plates were then incubated for 2 hours at room temperature with 50 μL of a 1:400 dilution of anti-phospho-ERK1/2 (Thr202/Tyr204) (Cell Signaling; Cat #9101) and a 1:1000 dilution of anti-GAPDH (Millipore; Cat #MAB374) in LI-COR blocking buffer containing 0.05% Tween-20. Plates were washed with PBS containing […] Tween-20 then incubated at room temperature for 1 hour with 50 μL of a 1:1000 dilution of anti-rabbit AlexaFluor 680 (Life Technologies; Cat #A21109) and a 1:1000 dilution of anti-mouse IRDye 800CW (LI-COR; Cat #926-32210) in LI-COR blocking buffer containing 0.05% Tween-20. Plates were analyzed by reading on an Odyssey CLx infrared scanner. For each well, the phospho-ERK signal was normalized to the GAPDH signal and converted to POC using the following equation:
[formula] • Where: • Xmax Average Uninhibited Controls • Xmin Average Complete Inhibition Controls IC50 values were then calculated using a 4-parameter fit in XLfit software and are provided in Table A1.

[6] = system: A375 cells; assay: Cellular phospho-ERK inhibition assay in A375 cells; type: cell-based; details: Homo sapiens, A-375, A375 cells (head prints A357), 2 hours treatment, read-out: A357 cell IC50
Outline: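 A375 (DMEM) or H1755 (RPMI) cells in 10% FBS treated 2 h at 37 °C with 9-point series, 66 pM–10 μM, 0.25% DMSO. Phospho-ERK1/2 (Thr202/Tyr204) measured by In Cell Western, normalised to GAPDH and to DMSO and 10 μM binimetinib controls; IC50 by 4-parameter fit.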

[7] = averaged IC50, TR-FRET tracer displacement, 60 min

| SMILES | efflux ratio at 2 h, 1 µM [1] | pIC50 [2, 7] | Papp at 2 h, 1 µM [3] | efflux ratio at 2 h, 1 µM [4] | pIC50 [5] | pIC50 [6] | pIC50 [2] |
| --- | --- | --- | --- | --- | --- | --- | --- |
| Cn1cnc2ccc(Nc3c(F)c(F)cc(NS(=O)(=O)N4CCCC4)c3Cl)c(Cl)c2c1=O [Example 31, N-(2-chloro-3-((5-chloro-3-methyl-4-oxo-3,4-dihydroquinazolin-6-yl)amino)-4,5-difluorophenyl)pyrrolidine-1-sulfonamide trifluoroacetate] | 1.2 | 9.00 | 31 ×10⁻⁶ cm/s | 1 | 6.77 | 8.05 |  |
| Cn1cnc2ccc(Oc3c(F)ccc(NS(=O)(=O)N4CCCC4)c3Cl)c(Cl)c2c1=O [Example 39, N-(2-chloro-3-((5-chloro-3-methyl-4-oxo-3,4-dihydroquinazolin-6-yl)oxy)-4-fluorophenyl)pyrrolidine-1-sulfonamide] | 1.3 | 8.52 | 23 ×10⁻⁶ cm/s | 0.9 | 7.26 | 8.10 |  |
| Cn1cnc2ccc(Oc3c(F)ccc(NS(=O)(=O)N4CCC(F)(F)C4)c3Cl)c(Cl)c2c1=O [Example 61, N-(2-chloro-3-((5-chloro-3-methyl-4-oxo-3,4-dihydroquinazolin-6-yl)oxy)-4-fluorophenyl)-3,3-difluoropyrrolidine-1-sulfonamide] | 2.2 |  | 29 ×10⁻⁶ cm/s | 3.3 | 6.71 | 7.60 | 8.70 |
| Cc1c(Nc2c(F)ccc(NS(=O)(=O)N3CC4CC3C4)c2Cl)ccc2ncn(C)c(=O)c12 [Example 87, N-(2-chloro-3-((3,5-dimethyl-4-oxo-3,4-dihydroquinazolin-6-yl)amino)-4-fluorophenyl)-2-azabicyclo[2.1.1]hexane-2-sulfonamide trifluoroacetate] | 1 | 7.48 | 21 ×10⁻⁶ cm/s | 0.6 | 6.67 | 7.14 |  |
| Cc1c(Nc2c(F)ccc(NS(=O)(=O)N3CC(F)C3)c2Cl)ccc2ncn(C)c(=O)c12 [Example 125, N-(2-chloro-3-((3,5-dimethyl-4-oxo-3,4-dihydroquinazolin-6-yl)amino)-4-fluorophenyl)-3-fluoroazetidine-1-sulfonamide] | 1.2 | 8.30 | 37 ×10⁻⁶ cm/s | 1.6 | 6.00 | 7.74 |  |
| CO[C@@H]1CCN(S(=O)(=O)Nc2cc(F)cc(Nc3ccc4ncn(C)c(=O)c4c3C)c2Cl)C1 [Example 152, (R)-N-(2-chloro-3-((3,5-dimethyl-4-oxo-3,4-dihydroquinazolin-6-yl)amino)-5-fluorophenyl)-3-methoxypyrrolidine-1-sulfonamide] | 1.3 | 7.54 | 37 ×10⁻⁶ cm/s | 1.4 | 6.48 | 6.52 |  |
| Cc1c(Nc2c(F)c(F)cc(NS(=O)(=O)N3CC[C@@H](F)C3)c2Cl)ccc2ncn(C)c(=O)c12 [Example 35, (R)-N-(2-chloro-3-((3,5-dimethyl-4-oxo-3,4-dihydroquinazolin-6-yl)amino)-4,5-difluorophenyl)-3-fluoropyrrolidine-1-sulfonamide] | 1.5 | 8.70 | 31 ×10⁻⁶ cm/s | 2.1 | 6.79 | 7.68 |  |
| Cc1c(Nc2c(F)ccc(NS(=O)(=O)N3CC4CC4(F)C3)c2Cl)ccc2ncn(C)c(=O)c12 (stereo not drawn) [Example 149, N-(2-chloro-3-((3,5-dimethyl-4-oxo-3,4-dihydroquinazolin-6-yl)amino)-4-fluorophenyl)-1-fluoro-3-azabicyclo[3.1.0]hexane-3-sulfonamide] | 1.2 | 8.10 | 25 ×10⁻⁶ cm/s | 3.2 | 6.47 | 6.97 |  |
| COCC1CN(S(=O)(=O)Nc2ccc(F)c(Oc3ccc4ncn(C)c(=O)c4c3F)c2Cl)C1 [Example 121, N-(2-chloro-4-fluoro-3-((5-fluoro-3-methyl-4-oxo-3,4-dihydroquinazolin-6-yl)oxy)phenyl)-3-(methoxymethyl)azetidine-1-sulfonamide] | 1.9 | 8.05 | 35 ×10⁻⁶ cm/s | 6 | 7.74 | 8.15 |  |
| Cc1c(Nc2c(F)ccc(NS(=O)(=O)N3CC[C@@H](OC(F)F)C3)c2Cl)ccc2ncn(C)c(=O)c12 [Example 89] | 1.3 | 7.85 | 21 ×10⁻⁶ cm/s | 1 | 6.76 | 7.30 |  |
| [2H]C([2H])([2H])O[C@@H]1CCN(S(=O)(=O)Nc2ccc(F)c(Nc3ccc4ncn(C)c(=O)c4c3Cl)c2Cl)C1 [Example 53, (R)-N-(2-chloro-3-((5-chloro-3-methyl-4-oxo-3,4-dihydroquinazolin-6-yl)amino)-4-fluorophenyl)-3-(methoxy-d3)pyrrolidine-1-sulfonamide trifluoroacetate] | 2 | 8.15 | 30 ×10⁻⁶ cm/s | 1.8 | 7.60 | 8.22 |  |
| CCN(C)S(=O)(=O)Nc1cc(F)c(F)c(Nc2ccc3ncn(C)c(=O)c3c2C)c1Cl [Example 97, N-(2-chloro-3-((3,5-dimethyl-4-oxo-3,4-dihydroquinazolin-6-yl)amino)-4,5-difluorophenyl)-(N-ethyl-N-methyl)-sulfamide] | 0.9 | 8.00 | 30 ×10⁻⁶ cm/s | 1.8 | 6.21 | 7.06 |  |
| CCC1CCN(S(=O)(=O)Nc2ccc(F)c(Nc3ccc4ncn(C)c(=O)c4c3Cl)c2Cl)C1 (stereo not drawn) [Example 94, N-(2-chloro-3-((5-chloro-3-methyl-4-oxo-3,4-dihydroquinazolin-6-yl)amino)-4-fluorophenyl)-3-ethylpyrrolidine-1-sulfonamide trifluoroacetate] | 0.9 | 7.70 | 22 ×10⁻⁶ cm/s | 1.7 | 6.55 | 6.86 |  |
| Cn1cnc2ccc(Oc3c(F)ccc(NS(=O)(=O)N4CC5CC4C5)c3Cl)c(F)c2c1=O [Example 49, N-(2-chloro-4-fluoro-3-((5-fluoro-3-methyl-4-oxo-3,4-dihydroquinazolin-6-yl)oxy)phenyl)-2-azabicyclo[2.1.1]hexane-2-sulfonamide] | 1.4 | 8.70 | 30 ×10⁻⁶ cm/s | 1 | 7.15 | 8.52 |  |
| CN(C)S(=O)(=O)Nc1ccc(F)c(Nc2ccc3ncn(C)c(=O)c3c2F)c1Cl [Example 83, N-(2-chloro-4-fluoro-3-((5-fluoro-3-methyl-4-oxo-3,4-dihydroquinazolin-6-yl)amino)phenyl)-(N.N-dimethyl)-sulfamide] | 2.2 | 7.17 | 32 ×10⁻⁶ cm/s | 1.9 | 6.81 | 7.51 |  |
